Data published in patent US20240383875A1, “Benzimidazole Pyridine Derivatives” (Hoffmann-La Roche Inc., priority 2022, published 2024).

Legend:
Type in all cases: biochemical
[1] = molecular target: SIK1 (Homo sapiens, UniProt P57059); test: Enzymatic activity assay SIK1, RapidFire mass spectrometry (phosphorylation of CHK-peptide); conditions: RapidFire MS, inhibition of SIK1; read-out: SIK1 RF IC50
In short: (§1)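 Compounds (12-point, 3-fold, generally 30 μM to 170 pM) were pre-incubated 30 min at ambient temperature with SIK1 (5 nM), SIK2 (0.5 nM) or SIK3 (1.5 nM) in HEPES pH 7.0/magnesium acetate buffer. CHK-peptide (10 μM solution) and ATP (100 μM solution) were then added for 45 min before formic acid quench.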

[2] = molecular target: SIK2 (Homo sapiens, UniProt Q9H0K1); test: Enzymatic activity assay SIK2, RapidFire mass spectrometry (phosphorylation of CHK-peptide); conditions: RapidFire MS, inhibition of SIK2; read-out: SIK2 RF IC50
Sequence of SIK2 (Q9H0K1 whole entry): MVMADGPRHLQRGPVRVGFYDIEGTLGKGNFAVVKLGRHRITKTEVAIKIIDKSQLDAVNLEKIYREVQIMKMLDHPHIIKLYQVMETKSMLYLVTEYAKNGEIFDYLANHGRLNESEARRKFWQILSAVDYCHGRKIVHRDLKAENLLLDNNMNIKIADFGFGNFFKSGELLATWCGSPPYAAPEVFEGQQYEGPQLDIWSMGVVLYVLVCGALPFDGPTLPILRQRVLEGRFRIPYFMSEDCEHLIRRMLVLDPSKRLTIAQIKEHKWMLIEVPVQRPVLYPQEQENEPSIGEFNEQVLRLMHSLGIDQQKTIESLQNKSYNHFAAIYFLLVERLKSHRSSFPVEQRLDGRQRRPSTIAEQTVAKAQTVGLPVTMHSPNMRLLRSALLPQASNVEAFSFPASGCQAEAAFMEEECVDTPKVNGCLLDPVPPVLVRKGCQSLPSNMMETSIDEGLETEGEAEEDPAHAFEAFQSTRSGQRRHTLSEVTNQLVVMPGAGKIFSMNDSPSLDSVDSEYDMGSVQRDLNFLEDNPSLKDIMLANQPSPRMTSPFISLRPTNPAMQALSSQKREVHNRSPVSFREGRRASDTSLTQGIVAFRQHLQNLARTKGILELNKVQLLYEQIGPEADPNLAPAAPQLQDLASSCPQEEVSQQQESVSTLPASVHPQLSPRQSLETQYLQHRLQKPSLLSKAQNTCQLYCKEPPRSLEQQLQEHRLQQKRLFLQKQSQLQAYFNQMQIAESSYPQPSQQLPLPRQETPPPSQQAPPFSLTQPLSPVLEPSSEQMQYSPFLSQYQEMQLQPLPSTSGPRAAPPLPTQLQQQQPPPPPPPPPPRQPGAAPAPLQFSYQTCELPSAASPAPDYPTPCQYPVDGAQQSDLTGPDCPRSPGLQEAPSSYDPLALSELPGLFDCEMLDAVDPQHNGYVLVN
In short: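 SIK2 (0.5 nM) in pH 7.0 HEPES buffer with 10 mM Mg acetate phosphorylates CHK-peptide (10 μM solution) with 100 μM ATP solution, 45 min ambient, then formic acid quench.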

[3] = molecular target: SIK3 (Homo sapiens, UniProt Q9Y2K2); test: Enzymatic activity assay SIK3, RapidFire mass spectrometry (phosphorylation of CHK-peptide); conditions: RapidFire MS, inhibition of SIK3; read-out: SIK3 RF IC50
Sequence of SIK3 (Q9Y2K2 whole entry): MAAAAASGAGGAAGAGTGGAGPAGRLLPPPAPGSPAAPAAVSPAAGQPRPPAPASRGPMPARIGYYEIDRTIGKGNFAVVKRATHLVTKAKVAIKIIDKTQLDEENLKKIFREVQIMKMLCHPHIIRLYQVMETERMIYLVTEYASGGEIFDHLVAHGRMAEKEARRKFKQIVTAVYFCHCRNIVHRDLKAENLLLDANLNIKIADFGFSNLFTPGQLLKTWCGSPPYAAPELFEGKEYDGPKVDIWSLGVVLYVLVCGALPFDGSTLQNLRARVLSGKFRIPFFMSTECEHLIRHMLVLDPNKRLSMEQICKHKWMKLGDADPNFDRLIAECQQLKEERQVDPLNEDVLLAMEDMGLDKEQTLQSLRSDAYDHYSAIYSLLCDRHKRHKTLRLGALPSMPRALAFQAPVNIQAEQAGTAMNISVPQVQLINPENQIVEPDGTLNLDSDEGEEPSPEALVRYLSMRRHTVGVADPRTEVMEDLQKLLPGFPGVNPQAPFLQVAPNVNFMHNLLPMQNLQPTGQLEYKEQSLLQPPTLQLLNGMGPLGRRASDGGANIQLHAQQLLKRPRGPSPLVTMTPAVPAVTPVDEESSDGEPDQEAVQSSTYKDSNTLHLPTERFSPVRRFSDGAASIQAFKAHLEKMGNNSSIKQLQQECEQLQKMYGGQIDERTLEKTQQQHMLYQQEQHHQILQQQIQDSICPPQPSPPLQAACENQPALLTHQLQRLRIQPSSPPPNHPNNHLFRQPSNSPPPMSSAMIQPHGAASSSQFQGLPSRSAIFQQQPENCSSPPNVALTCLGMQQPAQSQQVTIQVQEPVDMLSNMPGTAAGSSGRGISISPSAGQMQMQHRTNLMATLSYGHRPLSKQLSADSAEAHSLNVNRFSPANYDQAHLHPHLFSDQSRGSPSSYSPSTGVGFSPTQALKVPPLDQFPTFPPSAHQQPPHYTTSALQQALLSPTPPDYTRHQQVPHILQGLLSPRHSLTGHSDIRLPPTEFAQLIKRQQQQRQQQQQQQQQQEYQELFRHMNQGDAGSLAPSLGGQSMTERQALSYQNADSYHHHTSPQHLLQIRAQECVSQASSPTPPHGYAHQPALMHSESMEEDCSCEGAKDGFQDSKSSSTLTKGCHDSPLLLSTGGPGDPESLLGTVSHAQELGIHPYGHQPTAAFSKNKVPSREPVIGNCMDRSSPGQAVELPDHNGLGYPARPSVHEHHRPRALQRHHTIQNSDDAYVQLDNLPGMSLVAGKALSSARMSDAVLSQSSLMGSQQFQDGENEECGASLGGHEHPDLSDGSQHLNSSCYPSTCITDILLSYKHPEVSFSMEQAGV
In short: as §1

Sequence of SIK1 (P57059 whole entry): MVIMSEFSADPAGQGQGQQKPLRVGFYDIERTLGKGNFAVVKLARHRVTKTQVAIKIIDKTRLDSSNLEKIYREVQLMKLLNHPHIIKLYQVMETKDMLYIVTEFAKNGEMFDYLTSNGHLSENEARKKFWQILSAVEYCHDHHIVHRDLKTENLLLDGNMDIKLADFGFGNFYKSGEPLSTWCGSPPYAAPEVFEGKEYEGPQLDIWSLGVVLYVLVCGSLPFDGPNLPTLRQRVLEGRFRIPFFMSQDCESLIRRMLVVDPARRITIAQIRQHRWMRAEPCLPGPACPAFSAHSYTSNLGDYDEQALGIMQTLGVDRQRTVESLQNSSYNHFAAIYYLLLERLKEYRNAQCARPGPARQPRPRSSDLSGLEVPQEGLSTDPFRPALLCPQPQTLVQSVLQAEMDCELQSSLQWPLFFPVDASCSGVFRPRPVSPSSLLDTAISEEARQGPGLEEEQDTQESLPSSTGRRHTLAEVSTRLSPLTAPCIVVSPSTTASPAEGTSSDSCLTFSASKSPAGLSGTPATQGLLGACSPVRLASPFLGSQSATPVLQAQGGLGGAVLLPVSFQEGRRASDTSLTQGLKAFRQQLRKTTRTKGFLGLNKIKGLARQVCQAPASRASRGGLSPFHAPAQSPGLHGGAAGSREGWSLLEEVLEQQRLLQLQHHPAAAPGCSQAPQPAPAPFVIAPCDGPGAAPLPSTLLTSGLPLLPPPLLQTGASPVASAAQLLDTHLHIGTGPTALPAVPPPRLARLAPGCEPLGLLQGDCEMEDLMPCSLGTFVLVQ

SMILES | IC50 [1] [µM] | IC50 [2] [µM] | IC50 [3] [µM]
Cc1cc(C(=O)N(C)C)c(Nc2cc3ncn(-c4ccc([C@H](C)O)c(-n5nc(C(F)F)cc5C)n4)c3cc2F)nn1 [Example 345, 3-[[1-[6-[3-(difluoromethyl)-5-methyl-pyrazol-1-yl]-5-[(1~{S})-1-hydroxyethyl]-2-pyridyl]-6-fluoro-benzimidazol-5-yl]amino]-~{N},~{N},6-trimethyl-pyridazine-4-carboxamide] | 17.2 | 0.0489 | 0.0602
Cc1ccc(Nc2ccc3ncn(-c4ccc(C(C)O)c(N5CC(C)(C#N)C5)n4)c3c2)nn1 (stereo not drawn) [Example 184, 1-[3-(1-Hydroxyethyl)-6-[6-[(6-methylpyridazin-3-yl)amino]benzimidazol-1-yl]-2-pyridyl]-3-methyl-azetidine-3-carbonitrile] | 1.99 | 2.5 | 1.9
